Patent US7514432B2, “Compounds and methods of treating cell proliferative diseases, retinopathies and arthritis” (Exonhit Therapeutics SA, priority 2003, dated 2009)

Legend:
[1] = tested on: HepG2; experiment: Cell viability assay (MTT), HepG2; format: cell-based; details: Homo sapiens, 10% FBS, 16-hours treatment, 1% DMSO
Description: (§1) Table 15: 16-hour cell viability assay (MTT) in the presence of 10% Fetal Bovine Serum and 1% DMSO, in HCT116, MDA-MB-231, NIH3T3, HepG2 and primary hepatocytes. 5 10^4 to 10 10^4 cells were seeded in 48-well plates in growth medium containing 10% FBS, with or without various concentrations of test compounds. Data were analyzed and IC50s were calculated from dose-reponse curves using GraphPad Prism. Results summarized in the tables are mean±SEM of 1 to 2 independent experiments.
(§2) In order to determine a compound's effect on cell viability, microculture tetrazolium assays (MTT) were performed as described by Carmichael et al. (1996) with modifications. Four human tumoral cell lines, namely HCT116 colon adenocarcinoma, H460 lung carcinoma, MCF-7 and MDA-MB-231 breast carcinoma cell lines, DLD1 colorectal adenocarcinoma, HeLa adenocarcinoma, HepG2 hepatocellular carcinoma. 3 immortalized but non tumorigenic cell lines, namely NIH3T3 mouse fibroblasts (American Type Culture Collection) and primary hepatocytes (Biopredic international), cultured according to their recommendations together with Human Microvasculature Endothelial Cell line HMEC1 (National Center for Infectious Diseases). Briefly, cells were seeded in 48-well plates 24 hours before drug addition. Cells were treated with 0 to 200 μM (11 concentrations) of compound solubilized in DMSO, adjusting the final concentration of DMSO to 1% in the well. 16 hours, and three or six days after treatment, 0.5 mg/ml MTT (Sigma) was added to the medium and cells were incubated for 1-5 hours at 37° C. before solubilization of formazan crystals in 100% DMSO. Absorbance was measured using a spectrophotometer at a wavelength of 550 nm. Data was analyzed using the GraphPad Prism software (GraphPad Software, Inc.), and IC50 (dose leading to 50% cell death) was calculated from the dose-response curves.

[2] = tested on: HCT116; experiment: Cell viability assay (MTT), HCT116; format: cell-based, human; details: 1% DMSO
Procedure, shortened: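 Cells seeded 24 h before treatment with 0–200 μM compound (11 concentrations, 1% DMSO final) in 10% or 0.5% FBS medium; exposure 16 h, 3 or 6 days, fed every 3 days in 6-day runs. MTT 0.5 mg/ml read at 550 nm; IC50 from dose-response curves, mean±SEM.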

[3] = tested on: NIH 3T3; experiment: Cell viability assay (MTT), NIH 3T3; format: cell-based, mouse; details: 10% FBS, 1% DMSO
Procedure, shortened: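 MTT viability in medium with 10% FBS and 1% DMSO, with cells seeded 24 h before treatment at 0–200 μM (11 concentrations). There were two formats: 6-day (3–15 10^3 cells, re-fed every 3 days) or 16-hour (5–10 10^4 cells). Absorbance was read at 550 nm, giving IC50 (50% cell death) as mean±SEM.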

[4] = tested on: MDA-MB-231; experiment: Boyden chamber migration assay, MDA-MB-231; format: cell-based, human; details: Homo sapiens, FBS as chemoattractant
Description: FIG. 4: Migration assays. (A) Wound healing assay in REF cells. 7.6 10^4 cells were plated on coverslips 48 hours before the experiment. The cells were pre-treated for 30 min. with the compounds, and then a scrape was done using a pipette tip. The scraped coverslips in treatment medium were put under a thermostated microscope coupled to a video camera. Movies were analyzed as described in material and methods, and velocity and total distance covered by the cells were evaluated. Bar graphs represent the mean±SEM of 2 to 4 experiments. (B) Boyden chamber migration assay in HMEC1, NIH3T3 and MDA-MB-231 cells. 5 10^4 to 7.5 10^4 Cells, resuspended in culture medium with or without FBS and with different compound concentrations, were seeded in the upper Boyden blind well on top of 8 μm pore-sized filters. The ability of the cells to migrate through the filter was assayed in the absence or presence of FBS in the lower Boyden chamber. After 16 hours incubation, the medium was removed and replaced with calcein-AM containing medium. After labeling, cells were washed with HBSS and fluorescence was read in a fluorescence plate reader. Fluorescence values were normalized against the fluorescence obtained for the 1% DMSO control. The data plotted are the means±SEM of 2 to 4 independent experiments.
An essential characteristic of malignant cells is their ability to migrate, invade host tissues and to produce metastases. In order to evaluate the capacity of one compound to affect the ability of tumoral cells to migrate, migration assays were performed using highly invasive tumoral cells MDA-MB-231, endothelial cells HMEC1 or fibroblastic cells NIH3T3. This assay was performed using Falcon HTS Fluoroblock inserts. Culture medium containing Fetal Bovine Serum (FBS; which is used as a chemoattractant) was added to the plate wells and 2 10^4 to 7.5 10^4 cells resuspended in medium without FBS and with 0.1% BSA were added to each insert well. The compound of interest was added to the medium in both the upper and the lower chambers. Plates were incubated for 16 hours at 37° C. Following incubation, the medium was removed from the upper chamber and the entire insert plate was transferred to a second 24-well plate containing 4 μg/ml Calcein-AM™ in medium containing 0.1% BSA. The plates were incubated for one hour at 37° C., rinsed with Hanks Buffered Saline (HBSS). Fluorescence data were collected using Fluoroskan Ascent FL fluorescence plate reader at an excitation wavelength (Ex) of 485 nm and emission wavelength (Em) of 517 nm. Only those labelled cells that passed through the Matrigel layer and the membrane were detected. Data were analyzed using the GraphPad Prism software and IM50s (dose at which 50% inhibition of cell migration is observed) were calculated.

[5] = tested on: DLD1; experiment: Cell viability assay (MTT), DLD1; format: cell-based; details: Homo sapiens, DLD-1, 72 h, 10% FBS, 3-day treatment, 1% DMSO
Description: Table 14: 3-day cell viability assay (MTT) in the presence of 10% Fetal Bovine Serum and 1% DMSO, in DLD1, HCT116, MDA-MB-231, MCF7 and HeLa cells. 7.5 10^3 to 1.5 10^4 cells were seeded in 48-well plates in growth medium containing 10% FBS, with or without various concentrations of test compounds. Data were analyzed and IC50s were calculated from dose-response curves using GraphPad Prism. Results summarized in the tables are mean±SEM of 1 to 7 independent experiments.
as §2

[6] = tested on: Primary Hepatocytes; experiment: Cell viability assay (MTT), primary hepatocytes; format: cell-based; details: Hepatocyte, 10% FBS, 16-hours treatment, 1% DMSO
Description: as §1, §2

[7] = Homo sapiens, HCT-116, 16 h, 10% FBS, 16-hours treatment
[8] = Homo sapiens, HCT-116, 72 h, 10% FBS, 3-day treatment
[9] = Homo sapiens, HCT-116, 144 h, 0.5% FBS, 6-day treatment
[10] = Homo sapiens, HCT-116, 144 h, 10% FBS, 6-day treatment
[11] = Mus musculus, NIH3T3, 16 h, 16-hours treatment
[12] = Mus musculus, NIH3T3, 144 h, 6-day treatment
[13] = 10% FBS, 6-day treatment, trihydrochloride

Compound	IC50 [1] [µM]	IC50 ([2]; 10% FBS, 6-day treatment, dihydrochloride) [µM]	IC50 [2, 7] [µM]	IC50 [2, 8] [µM]	IC50 [2, 9] [µM]	IC50 [2, 10] [µM]	IC50 [3, 11] [µM]	IC50 [3, 12] [µM]	IC50 ([4]; MDA-MB-231, 16 hours) [µM]	IC50 [5] [µM]	IC50 [6] [µM]	IC50 [2, 13] [µM]	IC50 ([4]; MDA-MB-231, 16 h) [µM]	IC50 ([3]; 6-day treatment, trihydrochloride) [µM]
Cl.Cl.O=c1cc(CN2CCOCC2)occ1OCCCCCSc1ccnc2cc(C(F)(F)F)ccc12 [EHT 1864, 5-(5-(7-(Trifluoromethyl)quinolin-4-ylthio)pentyloxy)-2-(morpholinomethyl)-4H-pyran-4-one dihydrochloride]	60	2.7	37	6.1	6.6	< 4	69.3	19.8	5.1 ± 1.9	21.9	> 50	–	–	–
Cl.Cl.Cl.O=c1cc(CN2CCNCC2)occ1OCCCCCSc1ccnc2cc(C(F)(F)F)ccc12 [EHT 8560, 5-(5-(7-(Trifluoromethyl)quinolin-4-ylthio)pentyloxy)-2-((piperazin-1-yl)methyl)-4H-pyran-4-one trihydrochloride]	9.75	–	–	4	4.6	< 4	–	5.1	–	5.6	17.3	3.8	4.5 ± 2.4	–
CN1CCN(Cc2cc(=O)c(OCCCCCSc3ccnc4cc(C(F)(F)F)ccc34)co2)CC1.Cl.Cl.Cl [EHT 9241, 5-(5-(7-(Trifluoromethyl)quinolin-4-ylthio)pentyloxy)-2-((4-methylpiperazin-1-yl)methyl)-4H-pyran-4-one trihydrochloride]	11.3	–	31.3	5.7	6.2	< 4	25.6	–	–	8.1	29.6	4	2.7 ± 1	8.7
